# Experiments:
# Assay in all cases: relative viability (nuclei count vs DMSO), 5 days (fraction); higher = more cells survive
# IU1-47 + Pemetrexed = compound: CC1=CC(=C(N1C2=CC=C(C=C2)Cl)C)C(=O)CN3CCCCC3 [IU1-47] + Nc1nc2[nH]cc(CCc3ccc(C(=O)N[C@@H](CCC(=O)O)C(=O)O)cc3)c2c(=O)[nH]1 [Pemetrexed] (partner 0.2 µM)
# Summary of the method: (§1)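 Cells from lung cancer lines were seeded into 1536-well plates and, one day later, dosed by pin tool. Treatments were either a single drug or a fixed dose of an anchor drug with five library-drug doses (not always all listed) in √10 steps. After 5 days, nuclei were stained in a one-step fixation (final 0.05% Triton X-100, 1% formaldehyde, 1 ug/ml Hoechst) and counted on 4× images, and relative viability is the treated-to-vehicle nuclei ratio, as the median of duplicate plates.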
# IU1-47 + Crizotinib = compound: CC1=CC(=C(N1C2=CC=C(C=C2)Cl)C)C(=O)CN3CCCCC3 [IU1-47] + C[C@@H](Oc1cc(-c2cnn(C3CCNCC3)c2)cnc1N)c1c(Cl)ccc(F)c1Cl [Crizotinib] (partner 1 µM)
# Summary of the method: as §1
# FG-4592 + OSI-027 = compound: Cc1nc(C(=O)NCC(=O)O)c(O)c2ccc(Oc3ccccc3)cc12 [FG-4592] + COc1cccc2cc(-c3nc([C@H]4CC[C@H](C(=O)O)CC4)n4ncnc(N)c34)[nH]c12 [OSI-027] (partner 0.5 µM)
# Summary of the method: as §1
# IU1-47 + Luminespib = compound: CC1=CC(=C(N1C2=CC=C(C=C2)Cl)C)C(=O)CN3CCCCC3 [IU1-47] + CCNC(=O)c1noc(-c2cc(C(C)C)c(O)cc2O)c1-c1ccc(CN2CCOCC2)cc1 [Luminespib] (partner 0.01 µM)
# Summary of the method: as §1
Cell Line,relative viability (IU1-47 + Pemetrexed; first compound 0.08 µM),relative viability (IU1-47 + Pemetrexed; first compound 0.253 µM),relative viability (IU1-47 + Pemetrexed; first compound 0.8 µM),relative viability (IU1-47 + Pemetrexed; first compound 2.53 µM),relative viability (IU1-47 + Pemetrexed; first compound 8 µM),relative viability (IU1-47 + Crizotinib; first compound 0.08 µM),relative viability (IU1-47 + Crizotinib; first compound 0.253 µM),relative viability (IU1-47 + Crizotinib; first compound 0.8 µM),relative viability (IU1-47 + Crizotinib; first compound 8 µM),relative viability (FG-4592 + OSI-027; first compound 0.08 µM),relative viability (FG-4592 + OSI-027; first compound 0.253 µM),relative viability (FG-4592 + OSI-027; first compound 0.8 µM),relative viability (FG-4592 + OSI-027; first compound 2.53 µM),relative viability (FG-4592 + OSI-027; first compound 8 µM),relative viability (IU1-47 + Luminespib; first compound 0.08 µM),relative viability (IU1-47 + Luminespib; first compound 0.253 µM),relative viability (IU1-47 + Luminespib; first compound 0.8 µM),relative viability (IU1-47 + Luminespib; first compound 2.53 µM),relative viability (IU1-47 + Luminespib; first compound 8 µM),relative viability (IU1-47 + Crizotinib; first compound 2.53 µM)
HCC-366,0.176,0.157,0.192,0.211,0.19,0.38,0.633,0.562,0.393,0.455,0.934,0.784,0.484,0.703,–,–,–,–,–,–
HCC-827,0.26,0.282,0.275,0.291,0.26,0.89,0.955,1.01,0.904,0.677,0.727,0.8,0.669,0.593,0.819,0.588,0.818,0.573,0.648,0.961
HOP-62,0.398,0.454,0.373,0.223,0.365,0.918,0.873,0.901,0.971,0.839,0.736,0.814,0.722,0.713,0.957,0.964,1.04,0.925,1.06,0.441
IA-LM,–,–,–,–,–,–,0.974,0.942,0.644,–,–,–,–,–,–,–,–,–,–,1.1
LC-2-ad,0.284,0.283,0.268,–,0.262,0.412,0.444,0.434,0.41,0.838,0.753,–,0.591,0.661,1.23,1.04,0.883,0.766,1.15,0.572
LCLC-97TM1,0.173,0.15,0.154,–,0.172,0.461,0.339,0.458,0.323,0.665,0.397,0.716,0.488,0.395,0.846,0.757,0.834,0.716,0.787,–
LCLC-103H,0.474,0.464,0.469,0.449,0.519,1.15,1.06,1.06,1.09,0.445,0.45,0.455,0.421,0.373,1.11,0.982,1.03,0.818,0.989,1.05
LK-2,0.327,0.308,0.3,0.306,0.156,0.204,0.223,0.223,0.255,0.185,0.19,0.223,0.185,0.174,0.235,0.165,0.175,0.213,0.17,0.213
LOU-NH91,0.389,0.386,0.526,0.38,0.35,0.739,0.808,0.733,0.769,0.722,0.399,0.753,0.666,0.687,0.326,0.299,0.294,0.276,0.336,0.708
LU99A,0.178,0.227,0.155,0.187,0.191,0.503,0.538,0.538,0.617,0.332,0.276,0.296,0.267,0.27,0.32,0.182,0.273,0.302,0.259,0.739
LXF-289,0.888,0.886,0.851,0.945,0.856,0.854,0.858,0.82,0.817,0.659,0.717,0.755,0.709,0.821,0.822,0.629,0.916,0.5,0.468,0.796
NCI-H23,0.608,–,0.59,0.708,0.692,0.533,0.528,0.506,0.48,0.612,0.517,0.488,0.325,0.439,0.206,0.237,0.203,0.229,0.209,0.638
NCI-H522,0.923,0.975,1.02,0.735,0.958,–,–,–,–,0.739,0.738,0.727,0.594,0.574,1.32,1.27,1.35,0.864,1.23,–
NCI-H727,–,–,–,–,–,0.929,–,0.857,0.658,0.41,0.46,0.596,0.524,0.593,0.356,0.241,0.803,0.365,0.293,0.798
NCI-H1299,–,–,–,–,–,0.965,0.93,0.977,0.834,–,–,–,–,–,–,–,–,–,–,0.972
NCI-H1395,0.888,0.853,0.747,0.508,0.738,–,–,–,–,0.593,0.644,0.56,0.612,0.549,0.678,0.715,0.547,0.597,0.813,–
NCI-H1648,0.776,0.888,1.01,0.644,0.494,–,–,–,–,0.275,0.285,0.302,0.258,0.28,–,–,–,–,–,–
NCI-H1703,–,–,–,–,–,0.524,0.917,0.426,1.11,–,–,–,–,–,–,–,–,–,–,1.15
NCI-H1793,0.691,–,0.802,0.798,0.629,–,–,–,–,0.223,0.229,–,0.178,0.254,0.177,0.188,0.165,–,0.171,–
NCI-H2342,0.794,0.782,0.942,0.825,0.693,–,–,–,–,0.594,0.648,0.631,0.585,0.57,0.698,0.679,0.775,0.713,0.745,–
SW 900,0.478,–,0.495,0.472,0.383,–,–,–,–,0.424,0.546,0.493,0.491,0.534,0.191,0.172,0.181,0.176,0.194,–
